Each structure is given as a SMILES string.

One may read the IC50 as the midpoint of a concentration-inhibition curve.

In one experiment the target is T1, Human PI3Kα (Homo sapiens, UniProt P42336).
T1 construct: purchased Millipore Corporation 14-602
Put plainly: PI3Kα enzyme inhibitory activity (Kinase-Glo Plus luminescence). Format: biochemical. Particulars: Human PI3Kα 12 ng/well, phosphatidylinositol 0.2 μg/well, 37° C. for 3 hours. Here is the method: 2. PI3Kα Enzyme Inhibitory Activity
Human PI3Kα (12 ng/well, Millipore Corporation, Catalogue No. 14-602), phosphatidylinositol (0.2 μg/well), and the test compound were mixed in a 384-well plate in a reaction buffer (50 mM Hepes, 10 mM NaCl, 10 mM MgCl2, 2 mM EGTA, 2 mM DTT, pH 7.3) (total 10 μl), and incubated at 37° C. for 3 hours. After the reaction, 10 μL of a Kinase-Glo Plus reagent (Promega, Catalogue No. V3772) was added thereto, and a luminescence was measured with a luminometer. The IC50 value of the compound was calculated, taking the inhibition rate without addition of the enzyme as 100% and the inhibition rate without addition of the test compound as 0%, by a logistic method.
(§1) In the Table, Ex represents Example Compound No. as described later, PI3Kδ represents the IC50 value (nM) of a PI3Kδ enzyme inhibitory activity, and PI3Kα represents the IC50 value (nM) of a PI3Kα enzyme inhibitory activity.
For orientation: Kinase-Glo measures the ATP left after a reaction by luminescence.

The target in another experiment is T2, human PI3Kδ enzyme (Homo sapiens, UniProt O00329).
T2 construct: purchased Millipore Corporation 14-604
Put plainly: PI3Kδ enzyme inhibitory activity (PI3-Kinase HTRF Assay kit). Type of experiment: biochemical. Conditions: human PI3Kδ 10 ng/well, ATP 30 μM, PIP2 10 μM, room temperature 30 minutes. As for the experimental part:
1. PI3Kδ Enzyme Inhibitory Activity
For the experiment, a PI3-Kinase HTRF Assay kit (Millipore Corporation, Catalogue No. 33-016) and a human PI3Kδ enzyme (Millipore Corporation, Catalogue No. 14-604) were used. The measurement method was in accordance with the appended instructions. The overview thereof is as follows.
PI3Kδ (10 ng/well), phosphatidylinositol-4,5-bisphosphate (10 μM), ATP (30 μM), and the test compound were mixed in a 384-well plate (total 20 μL), and incubated at room temperature for 30 minutes. EDTA and biotinylated phosphatidylinositol-3,4,5-triphosphate were added thereto to stop the reaction. Thereafter, a Europium labeled anti-GST antibody, a GST bond GRP1 PH domain, and streptavidin-APC were added thereto, followed by incubation overnight. An HTRF ratio was measured using an HTRF plate reader. The IC50 value of the compound was calculated, taking the inhibition rate without addition of the enzyme as 100% and the inhibition rate without addition of the test compound as 0%, by means of a logistic method.
as §1

Experiment [1] concerns Spleen cells (B cell proliferation). Put plainly: Rat B cell proliferation inhibition test (anti-rat IgM, [3H]thymidine). Format: cell-based. Conditions: anti-rat IgM 3 μg/well, 48 hours culture, [3H]thymidine uptake. Here is the method: 4. Rat B Cell Proliferation Inhibition Test
Spleen cells (1.0×10^5 cells/well) prepared from male LEW/CrlCrlj rats (Charles River Laboratories, Japan, Inc.), mouse F(ab′)2 fragment anti-rat IgM (3 μg/well, SouthernBiotech Associates, Inc., Catalogue No. 3082-14) and the test compound dissolved in DMSO (final DMSO concentration 0.1%) were mixed in a 96-well plate using a 10% FCS-containing RPMI-1640 culture medium (total 200 μL). They were cultured in a CO2 incubator for 48 hours and [^3H]thymidine (925 GBq/mmol, Moravek Biochemicals, Inc., Catalogue No. MT6038) was added thereto at 0.037 MBq/well at 4 hours before completion of culture. Cells were harvested in a GF/C glass filter using a cell harvester, and a radioactivity on the filter was measured using a liquid scintillation counter. The IC50 value of the compound was calculated, taking the dpm (disintegration per minute) without addition of IgM as an inhibition rate of 100% and the dpm without addition of the test compound as an inhibition rate of 0%, by a logistic method.

T2 sequence (O00329 whole entry): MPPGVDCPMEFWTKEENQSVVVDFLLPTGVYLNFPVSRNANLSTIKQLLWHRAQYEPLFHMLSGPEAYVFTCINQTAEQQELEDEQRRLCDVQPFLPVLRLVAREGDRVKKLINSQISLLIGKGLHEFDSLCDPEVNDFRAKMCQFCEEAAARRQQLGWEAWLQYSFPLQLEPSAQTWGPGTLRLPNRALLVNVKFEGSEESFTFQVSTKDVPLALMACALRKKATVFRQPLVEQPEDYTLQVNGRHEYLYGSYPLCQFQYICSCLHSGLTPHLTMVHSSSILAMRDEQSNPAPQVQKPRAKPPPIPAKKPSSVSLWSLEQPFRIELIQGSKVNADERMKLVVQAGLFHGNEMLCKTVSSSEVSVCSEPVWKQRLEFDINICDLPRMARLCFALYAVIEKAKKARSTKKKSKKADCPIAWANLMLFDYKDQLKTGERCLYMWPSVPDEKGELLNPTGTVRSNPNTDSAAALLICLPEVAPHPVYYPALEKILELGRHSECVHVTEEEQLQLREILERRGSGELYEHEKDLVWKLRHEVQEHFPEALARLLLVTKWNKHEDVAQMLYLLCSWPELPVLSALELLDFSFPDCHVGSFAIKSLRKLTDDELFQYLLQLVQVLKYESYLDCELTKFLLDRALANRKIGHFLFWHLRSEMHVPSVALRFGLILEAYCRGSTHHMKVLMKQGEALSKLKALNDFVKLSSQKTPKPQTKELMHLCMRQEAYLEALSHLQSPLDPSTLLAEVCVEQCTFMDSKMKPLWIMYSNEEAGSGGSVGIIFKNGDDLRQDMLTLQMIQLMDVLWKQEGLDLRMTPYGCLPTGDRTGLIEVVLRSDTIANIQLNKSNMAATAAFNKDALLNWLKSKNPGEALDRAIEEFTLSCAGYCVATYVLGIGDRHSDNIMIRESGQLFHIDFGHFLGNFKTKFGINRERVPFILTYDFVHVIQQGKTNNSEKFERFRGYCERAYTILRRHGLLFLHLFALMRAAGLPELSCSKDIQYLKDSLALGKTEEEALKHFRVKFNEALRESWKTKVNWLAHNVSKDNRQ
T2 sequence (P27986 whole entry partner): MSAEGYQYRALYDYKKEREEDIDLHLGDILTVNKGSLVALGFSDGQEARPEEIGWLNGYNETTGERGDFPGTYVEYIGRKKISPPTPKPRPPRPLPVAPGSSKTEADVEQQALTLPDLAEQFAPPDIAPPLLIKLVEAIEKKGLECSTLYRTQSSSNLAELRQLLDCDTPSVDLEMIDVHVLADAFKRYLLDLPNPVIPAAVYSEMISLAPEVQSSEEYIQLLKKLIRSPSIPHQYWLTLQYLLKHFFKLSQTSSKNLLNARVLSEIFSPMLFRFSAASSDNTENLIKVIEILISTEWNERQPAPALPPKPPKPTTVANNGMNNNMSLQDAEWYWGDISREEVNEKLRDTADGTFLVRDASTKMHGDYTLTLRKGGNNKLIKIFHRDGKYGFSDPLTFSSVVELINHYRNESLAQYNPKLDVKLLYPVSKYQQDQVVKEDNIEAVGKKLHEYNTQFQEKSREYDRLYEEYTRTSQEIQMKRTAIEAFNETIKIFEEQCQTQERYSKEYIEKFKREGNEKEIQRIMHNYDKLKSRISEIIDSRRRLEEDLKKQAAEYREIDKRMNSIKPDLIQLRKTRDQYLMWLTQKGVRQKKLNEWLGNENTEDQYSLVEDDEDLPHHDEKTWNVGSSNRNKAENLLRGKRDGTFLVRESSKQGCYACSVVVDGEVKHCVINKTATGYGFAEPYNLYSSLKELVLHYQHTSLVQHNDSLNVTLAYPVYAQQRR
T1 sequence (P42336 whole entry): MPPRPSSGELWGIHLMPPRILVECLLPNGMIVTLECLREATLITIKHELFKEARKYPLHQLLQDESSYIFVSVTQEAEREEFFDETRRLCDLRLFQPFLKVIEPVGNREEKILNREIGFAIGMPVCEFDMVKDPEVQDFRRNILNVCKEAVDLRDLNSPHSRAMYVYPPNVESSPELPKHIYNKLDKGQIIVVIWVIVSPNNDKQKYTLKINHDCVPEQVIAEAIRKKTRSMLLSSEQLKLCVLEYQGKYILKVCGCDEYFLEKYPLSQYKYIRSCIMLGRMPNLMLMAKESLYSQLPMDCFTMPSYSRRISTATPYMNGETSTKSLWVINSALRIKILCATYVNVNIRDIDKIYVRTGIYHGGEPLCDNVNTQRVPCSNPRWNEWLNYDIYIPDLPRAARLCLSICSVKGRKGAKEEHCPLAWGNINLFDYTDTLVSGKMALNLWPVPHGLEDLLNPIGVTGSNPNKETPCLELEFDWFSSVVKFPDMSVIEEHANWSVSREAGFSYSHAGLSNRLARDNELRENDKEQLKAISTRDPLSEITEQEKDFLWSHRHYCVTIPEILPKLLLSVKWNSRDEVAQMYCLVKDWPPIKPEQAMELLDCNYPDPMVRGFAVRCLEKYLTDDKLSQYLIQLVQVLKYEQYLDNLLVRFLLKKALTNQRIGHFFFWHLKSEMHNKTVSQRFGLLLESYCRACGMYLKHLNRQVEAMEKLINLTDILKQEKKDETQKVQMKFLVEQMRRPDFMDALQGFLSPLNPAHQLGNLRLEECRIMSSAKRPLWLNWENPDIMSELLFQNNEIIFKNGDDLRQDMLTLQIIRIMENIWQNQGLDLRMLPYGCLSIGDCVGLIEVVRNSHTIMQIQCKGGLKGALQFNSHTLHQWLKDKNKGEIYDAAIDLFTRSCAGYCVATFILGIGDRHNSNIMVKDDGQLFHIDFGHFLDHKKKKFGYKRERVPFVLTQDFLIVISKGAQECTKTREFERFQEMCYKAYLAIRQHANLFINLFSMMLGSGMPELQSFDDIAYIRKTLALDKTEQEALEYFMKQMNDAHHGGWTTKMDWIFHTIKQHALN
T1 sequence (P27986 whole entry partner): as the sequence (P27986 whole entry partner) above

As for `CC#CCN(CC(C)(C)O)[C@H]1CC[C@H](CNc2nc(N3CCOCC3)cc(-n3c(C(F)F)nc4ccccc43)n2)CC1` [Example 437], the concentration for half-maximal inhibition (IC50) at Human PI3Kα stood at 2200 nM; on human PI3Kδ enzyme it was 7.1 nM; in experiment [1], 3.6 nM.
For the compound `CC(N(C)[C@H]1CC[C@H](CNc2nc(N3CCOCC3)cc(-n3c(C(F)F)nc4ccccc43)n2)CC1)C(C)(C)O` (stereo partly drawn) [Example 445], the half-maximal inhibitory concentration (IC50) was 3400 nM at Human PI3Kα, 7 nM against human PI3Kδ enzyme and 0.72 nM in experiment [1].
As for `FC(F)c1nc2ccccc2n1-c1cc(NC[C@H]2CC[C@H](N3CC[C@H](F)C3)CC2)nc(N2CCOCC2)n1` [Example 461], the figures for the IC50 (on Human PI3Kα; against human PI3Kδ enzyme; in experiment [1]) were 3800 nM, 16 nM and 1.1 nM, respectively.
On to `COCC(C)N[C@H]1CC[C@H](CNc2nc(N3CCOC[C@@H]3C)cc(-n3c(C(F)F)nc4ccccc43)n2)CC1` (stereo partly drawn) [Example 446], for which the IC50 on Human PI3Kα turned out to be 1700 nM; against human PI3Kδ enzyme, 8.9 nM; in experiment [1] it was 1.7 nM.
For `CC(C)(O)[C@@H]1CCCN1C1CCC(COc2cc(-n3c(C(F)F)nc4ccccc43)nc(N3CCOCC3)n2)CC1` (stereo partly drawn) [Example 486] the same measures were 3600 nM, 9.8 nM and 3.6 nM.
On to `C#CCN(CC(C)(C)O)[C@H]1CC[C@H](CNc2nc(N3CCOCC3)cc(-n3c(C(F)F)nc4ccccc43)n2)CC1` [Example 430], for which the figures for the 50% inhibitory concentration (IC50) (on Human PI3Kα; at human PI3Kδ enzyme; in experiment [1]) were 2300 nM, 2.3 nM and 1.8 nM, respectively.
The corresponding values for `C[C@H]1COCCN1c1cc(-n2c(C(F)F)nc3ccccc32)nc(NC[C@H]2CC[C@H](N(C)CC(C)(C)O)CC2)n1` [Example 393] are 780 nM, 7.7 nM and 0.7 nM.
For `CN(CC(C)(C)O)[C@H]1CC[C@H](CNc2nc(N3CCOCC3)cc(-n3c(C(F)F)nc4ccccc43)n2)CC1` [Example 375], the 50% inhibitory concentration (IC50) came out at 1600 nM at Human PI3Kα, 12 nM against human PI3Kδ enzyme and 1.2 nM in experiment [1].
As to `CCN(CCOC)[C@H]1CC[C@H](CNc2nc(N3CCOCC3)cc(-n3c(C(F)F)nc4ccccc43)n2)CC1` [Example 363], the concentration for half-maximal inhibition (IC50) came to 1400 nM at Human PI3Kα, 18 nM against human PI3Kδ enzyme and 1.4 nM in experiment [1].
With `CCCN(CCC)[C@H]1CC[C@H](CNc2nc(N3CCOCC3)cc(-n3c(C(F)F)nc4ccccc43)n2)CC1` [Example 450], the results for the IC50 (at Human PI3Kα; against human PI3Kδ enzyme; in experiment [1]) were 3500 nM, 14 nM and 2.1 nM, respectively.
Regarding `FC[C@H]1CCCN1[C@H]1CC[C@@H](CNc2cc(-n3c(C(F)F)nc4ccccc43)nc(N3CCOCC3)n2)CC1` [Example 510], the concentration for half-maximal inhibition (IC50) is over 10000 nM on Human PI3Kα, 36 nM against human PI3Kδ enzyme and 18 nM in experiment [1].
For `CC(C)C(O)CN(C)[C@H]1CC[C@H](CNc2nc(N3CCOCC3)cc(-n3c(C(F)F)nc4ccccc43)n2)CC1` (stereo partly drawn) [Example 398] the same measures were 3400 nM, 32 nM and 2.3 nM.
In the case of `CC(C)=CCN(CC(C)(C)O)[C@H]1CC[C@H](CNc2nc(N3CCOCC3)cc(-n3c(C(F)F)nc4ccccc43)n2)CC1` [Example 449], the half-inhibitory concentration (IC50) on Human PI3Kα is 1300 nM; against human PI3Kδ enzyme, 14 nM; in experiment [1], 2.2 nM.
With `CN(CC(C)(C)O)[C@H]1CC[C@H](CNc2cc(-n3c(C(F)F)nc4ccccc43)nc(N3CCOCC3)n2)CC1` [Example 495], the results for the half-maximal inhibitory concentration (IC50) (at Human PI3Kα; on human PI3Kδ enzyme; in experiment [1]) were 6700 nM, 14 nM and 1.7 nM, respectively.
For `CCN(CC(C)(C)O)[C@H]1CC[C@H](CNc2nc(N3CCOCC3)cc(-n3c(C(F)F)nc4ccccc43)n2)CC1` [Example 385], the figures for the half-inhibitory concentration (IC50) (at human PI3Kδ enzyme; in experiment [1]) were 21 nM and 1.9 nM, respectively.
In the case of `CCN(CC)[C@H]1CC[C@H](CNc2nc(N3CCOCC3)cc(-n3c(C(F)F)nc4ccccc43)n2)CC1` [Example 424], the IC50 at Human PI3Kα turned out to be 3600 nM; against human PI3Kδ enzyme, 6 nM; in experiment [1] it was 1.7 nM.
The corresponding values for `CC(C)(O)CN(CC1CCC1)[C@H]1CC[C@H](CNc2nc(N3CCOCC3)cc(-n3c(C(F)F)nc4ccccc43)n2)CC1` [Example 441] are 5900 nM, 15 nM and 4.2 nM.
For `COCCN(C1CC1)[C@H]1CC[C@H](CNc2nc(N3CCOCC3)cc(-n3c(C(F)F)nc4ccccc43)n2)CC1` [Example 246], the results for the concentration for half-maximal inhibition (IC50) (on Human PI3Kα; at human PI3Kδ enzyme; in experiment [1]) were 1700 nM, 5.5 nM and 2.1 nM, respectively.
The corresponding values for `FC(F)c1nc2ccccc2n1-c1cc(N2CCOCC2)nc(NC[C@H]2CC[C@H](N3CCOCC3)CC2)n1` [Example 174] are 2400 nM, 5.9 nM and 2.4 nM.
As for `COCCCN(C)[C@H]1CC[C@H](CNc2nc(N3CCOCC3)cc(-n3c(C(F)F)nc4ccccc43)n2)CC1` [Example 280], the results for the half-maximal inhibitory concentration (IC50) (at Human PI3Kα; at human PI3Kδ enzyme; in experiment [1]) were 2500 nM, 4.9 nM and 3.8 nM, respectively.
The corresponding values for `FC[C@@H]1CCCN1[C@H]1CC[C@H](COc2cc(-n3c(C(F)F)nc4ccccc43)nc(N3CCOCC3)n2)CC1` [Example 482] are 3400 nM, 4.6 nM and 4.6 nM.
For `CN(CC(C)(C)O)[C@H]1CC[C@H](COc2cc(-n3c(C(F)F)nc4ccccc43)nc(N3CCOCC3)n2)CC1` [Example 488] the same measures were 5600 nM, 30 nM and 2.8 nM.
For `COCCN(CC(C)F)[C@H]1CC[C@H](CNc2nc(N3CCOCC3)cc(-n3c(C(F)F)nc4ccccc43)n2)CC1` (stereo partly drawn) [Example 374] the same measures were 1200 nM, 6.4 nM and 2 nM.
For `COC[C@@H]1CCCN1C1CCC(CNc2nc(N3CCOCC3)cc(-n3c(C(F)F)nc4ccccc43)n2)CC1` (stereo partly drawn) [Example 456], the values for the half-inhibitory concentration (IC50) (on Human PI3Kα; on human PI3Kδ enzyme; in experiment [1]) were 1800 nM, 13 nM and 1.1 nM, respectively.
For `CCN(CC(C)(C)O)[C@H]1CC[C@H](CNc2nc(N3CCOC[C@@H]3C)cc(-n3c(C(F)F)nc4ccccc43)n2)CC1` [Example 403] the same measures were 700 nM, 4.9 nM and 0.82 nM.
Turning to `CN1CCC[C@H]1C(=O)N[C@H]1CC[C@H](Oc2cc(-n3c(C(F)F)nc4ccccc43)nc(N3CCOCC3)n2)CC1` [Example 500], the half-maximal inhibitory concentration (IC50) at Human PI3Kα is over 10000 nM; against human PI3Kδ enzyme, 14 nM; in experiment [1], 2.7 nM.
Take `COCCN(C)[C@H]1CC[C@H](CNc2cc(-n3c(C(F)F)nc4ccccc43)nc(N3CCOCC3)n2)CC1` [Example 497]: the 50% inhibitory concentration (IC50) was 16 nM on human PI3Kδ enzyme and 2.1 nM in experiment [1].
As to `CNC(=O)N[C@H]1CC[C@H](Nc2nc(N3CCOCC3)nc(-n3c(C(F)F)nc4ccccc43)n2)CC1` [Example 5, 1-[trans-4-({4-[2-(difluoromethyl)-1H-benzimidazol-1-yl]-6-morpholin-4-yl-1,3,5-triazin-2-yl}amino)cyclohexyl]-3-methylurea], the values for the 50% inhibitory concentration (IC50) on Human PI3Kα and at human PI3Kδ enzyme were 210 nM and 11 nM, respectively.
For `O=S1(=O)CCN([C@H]2CC[C@H](CNc3nc(N4CCOCC4)cc(-n4c(C(F)F)nc5ccccc54)n3)CC2)CC1` [Example 231] the same measures were 1500 nM and 8.2 nM.
`CCOCCN(C)[C@H]1CC[C@H](CNc2nc(N3CCOCC3)cc(-n3c(C(F)F)nc4ccccc43)n2)CC1` [Example 397]: the IC50 stood at 2900 nM at Human PI3Kα and 23 nM against human PI3Kδ enzyme.
For `FC(F)c1nc2ccccc2n1-c1cc(OC[C@H]2CC[C@H](N3CCOCC3)CC2)nc(N2CCOCC2)n1` [Example 216] the same measures were over 3000 nM and 5.6 nM.

(Values after US20120165309A1, “HETERO RING DERIVATIVE” (Astellas Pharma Inc., priority 2009, published 2012).)
